Test results published in patent US20140107109A1, “AMINO-DIHYDROTHIAZINE AND AMINO-DIOXIDO DIHYDROTHIAZINE COMPOUNDS AS BETA-SECRETASE ANTAGONISTS AND METHODS OF USE” (Amgen Inc., priority 2012, published 2014).
Like-named read-outs stand apart in the source and are kept apart here.

Assays:
[1] = biological target: Beta Secretase enzyme (BACE1) (Homo sapiens, UniProt P56817); assay: In vitro enzymatic BACE FRET assay; format: biochemical; conditions: read-out: BACE1 FRET assay IC50
Method: In Vitro Enzymatic BACE FRET (Fluorescence Resonance Energy Transfer) Assay (Enzyme Assay Data in the Example Tables I and II)
The assay buffer used in this screen is 0.05 M acetate, pH 4.2, 10% DMSO final, 100 uM genapol (which is a nonionic detergent, below its Critical Micelle Concentration). […] This assay is effectively started by the addition of FRET substrate (50 nM) and the combination is incubated for one hour. The FRET assay is terminated with by addition of Tris buffer, which raises the pH to neutrality, and the fluorescence is determined. The FRET substrate is a peptide with commercially available fluorophore and quencher, on opposite sides of the BACE cleavage site. Proteolytic cleavage of the FRET substrate releases quenching of fluorescence (excitation […] and […]).

[2] = test system: Aβ40 in conditioned medium of cells stably expressing Amyloid Precursor Protein (APP); assay: In vitro BACE cell-based assay (HEK cell assay), Aβ40 sandwich ELISA; conditions: Homo sapiens, HEK293
Method: In Vitro BACE Cell-Based Assay
The cell-based assay measures inhibition or reduction of Aβ40 in conditioned medium of test compound treated cells expressing amyloid precursor protein.
Cells stably expressing Amyloid Precursor Protein (APP) were plated at a density of 40K cells/well in 96 well plates (Costar). The cells were cultivated for 24 hours at 37C. and 5% CO2 in DMEM supplemented with 10% FBS. The test compounds were then added to cells in 10-point dose response concentrations with the starting concentration being either 100 μM or 10 μM. The compounds were diluted from stock solutions in DMSO and the final DMSO concentration of the test compounds on cells was 0.1%. After 24 h of incubation with the test compounds the supernatant conditioned media was collected and the Aβ 40 levels were determined using a sandwich ELISA. The IC50 of the compound was calculated from the percent of control or percent inhibition of Aβ 40 as a function of the concentration of the test compound.
The sandwich ELISA to detect Aβ 40 was performed in 96 well microtiter plates, which were pre-treated with goat anti-rabbit IgG (Pierce). The capture and detecting antibody pair that were used to detect Aβ 40 from cell supernatants were affinity purified pAb40 (Biosource) and biotinylated 6E10 (Signet Labs Inc.), respectively. The optimal concentration for the pAb40 antibody was 3 μg/ml in Superblock/TBS (Pierce) that was supplemented with 0.05% Tween 20 (Sigma). Optimal concentration for the detection antibody 6E10-biotinylated was 0.5 μg/ml in Superblock/TBS (Pierce) that had been supplemented with 2% normal goat serum and 2% normal mouse serum.
Cellular supernatants were incubated with the capture antibody for 3 h at 4° C., followed by 3 wash steps in TBS-tween (0.05%). The detecting antibody incubation was for 2 h at 4° C., again followed by the wash steps as described previously. The final readout of the ELISA is Time-Resolved Fluorescence (counts per minute) using Delfia reagents Streptavidin-Europium and Enhancement solutions (Perkin Elmer) and the Victor 2 multilabel counter (Perkin Elmer).

[3] = biological target: T1, Cathepsin D (Cat D) (Homo sapiens, UniProt P07339); assay: In vitro enzymatic Cathepsin D (Cat D) FRET assay; format: biochemical; conditions: read-out: CatD IC50
T1 construct: Recombinant Cat D was expressed in CHO cells; made in house; host or cells: CHO cells
T1 sequence (P07339 65-412, species assumed): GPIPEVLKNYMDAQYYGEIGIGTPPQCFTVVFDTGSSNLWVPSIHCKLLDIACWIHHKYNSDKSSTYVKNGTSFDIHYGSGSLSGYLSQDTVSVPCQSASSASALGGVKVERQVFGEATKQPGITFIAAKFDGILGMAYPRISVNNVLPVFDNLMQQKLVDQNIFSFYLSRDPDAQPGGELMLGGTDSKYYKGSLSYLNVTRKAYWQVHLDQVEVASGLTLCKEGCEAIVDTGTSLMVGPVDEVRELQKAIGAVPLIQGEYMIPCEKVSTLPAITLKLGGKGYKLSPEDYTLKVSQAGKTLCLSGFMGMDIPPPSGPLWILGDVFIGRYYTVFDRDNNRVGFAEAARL
Method: In Vitro Enzymatic Cathepsin D (Cat D) FRET (Fluorescence Resonance Energy Transfer) Assay Recombinant Cat D was expressed in CHO cells. […] The Cat D enzyme (9 nM) is pre-incubated for one hour with inhibitors, typically in about 1 uL of DMSO according to a serial dilution, is added thereto. […] The FRET assay is terminated with by addition of Tris buffer, which raises the pH to neutrality, and the fluorescence is determined. The FRET substrate is a peptide with commercially available fluorophore and quencher, on opposite sides of the BACE cleavage site. The Cat D substrate peptide sequence is based on sequence #1 of Table 1 from Gulnik et al. […] Alternatively, a Cat D assay may also be run according to the procedure described in the article, Characterization of new fluorgenic substrates for the rapid and sensitive assay of cathepsin E and cathepsin D, J. Biochem., 125:1137, 1999. In addition, the cathepsin D and cathepsin E assays are described in PCT publication WO2011069934. This WIPO publication describes BACE inhibitor compounds having an amide linker connecting two aromatic groups with extremely poor cathepsin D and/or cathepsin E inhibitory activity (see Table 2). Where available, the in-vitro Cat D FRET assay data for each of the Examples, conducted by the first procedure, is provided.

Sequence of Beta Secretase enzyme (BACE1) (P56817 46-501): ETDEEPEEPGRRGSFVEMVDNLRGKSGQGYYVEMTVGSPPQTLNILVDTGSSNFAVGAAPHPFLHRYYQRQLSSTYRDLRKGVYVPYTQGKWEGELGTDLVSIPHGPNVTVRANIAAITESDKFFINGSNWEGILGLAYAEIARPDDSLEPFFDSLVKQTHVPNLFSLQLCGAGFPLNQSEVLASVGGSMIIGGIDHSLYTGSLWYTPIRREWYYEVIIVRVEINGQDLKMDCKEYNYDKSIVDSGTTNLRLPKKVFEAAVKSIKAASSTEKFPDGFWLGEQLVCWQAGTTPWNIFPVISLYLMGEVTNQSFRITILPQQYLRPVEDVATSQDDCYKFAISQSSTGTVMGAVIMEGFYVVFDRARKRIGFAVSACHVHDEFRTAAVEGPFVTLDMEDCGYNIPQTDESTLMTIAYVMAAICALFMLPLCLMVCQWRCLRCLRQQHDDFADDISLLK

Row | Compound | IC50 ([1]; average IC50) [nM] | IC50 ([2]; average IC50, HEK cells) [nM] | IC50 [3] [nM] | IC50 [1] [nM] | IC50 ([2]; Aβ40, 24 h incubation) [nM] | IC50 ([1]; average IC50, enzyme assay) [nM]
1 | C[C@@]1(c2cc(Br)ccc2F)CS(=O)(=O)C2(CCOC2)C(N)=N1 (mixture of isomers) [Example 181, (8R)-10-Amino-8-(5-bromo-2-fluorophenyl)-8-methyl-2-oxa-6-thia-9-azaspiro[4.5]dec-9-ene 6,6-dioxide] | 16300 | > 15600 | 43300 |  |  | 
2 | C[C@@]1(c2cc(Nc3nccc4cc(Cl)cnc34)ccc2F)CS(=O)(=O)C2(CCOC2)C(N)=N1 (mixture of isomers) [Example 182, (8R)-10-amino-8-(5-((3-chloro-1,7-naphthyridin-8-yl)amino)-2-fluorophenyl)-8-methyl-2-oxa-6-thia-9-azaspiro[4.5]dec-9-ene 6,6-dioxide] | 2.2 | 30.6 | 63600 |  |  | 
3 | CC1(C)C(N)=N[C@](C)(c2cc(Nc3nccc4cc(Cl)cnc34)cc(F)c2F)CS1(=O)=O (single isomer, unassigned) [Example 70] |  |  | 164000 | 830 | 5040 | 
4 | CC1(C)C(N)=N[C@](C)(c2cc(NC(=O)c3ccc(F)cn3)ccc2F)CS1(=O)=O [Example 18, N-(3-((3R)-5-amino-3,6,6-trimethyl-1,1-dioxido-3,6-dihydro-2H-1,4-thiazin-3-yl)-4-fluorophenyl)-5-fluoro-2-pyridinecarboxamide] |  |  | > 400000 | 1.9 | 3.7 | 
5 | CC1(C)C(N)=N[C@](C)(c2cc(NC(=O)c3ccc(C(F)F)cn3)ccc2F)CS1(=O)=O [Example 20, N-(3-((3R)-5-amino-3,6,6-trimethyl-1,1-dioxido-3,6-dihydro-2H-1,4-thiazin-3-yl)-4-fluorophenyl)-5-(difluoromethyl)-2-pyridinecarboxamide] |  |  | 193000 | 2.7 | 3.9 | 
6 | CC1(C)C(N)=N[C@](C)(c2cc(NC(=O)c3cnc(C(F)(F)F)cn3)ccc2F)CS1(=O)=O [Example 21, N-(3-((3R)-5-amino-3,6,6-trimethyl-1,1-dioxido-3,6-dihydro-2H-1,4-thiazin-3-yl)-4-fluorophenyl)-5-(trifluoromethyl)-2-pyrazinecarboxamide] |  |  | > 400000 | 7.4 | 11 | 
7 | COc1ccc(C(=O)Nc2ccc(F)c([C@]3(C)CS(=O)(=O)C(C)(C)C(N)=N3)c2)nc1 [Example 22, N-(3-((3R)-5-amino-3,6,6-trimethyl-1,1-dioxido-3,6-dihydro-2H-1,4-thiazin-3-yl)-4-fluorophenyl)-5-methoxy-2-pyridinecarboxamide] |  |  | > 400000 | 1.5 | 3.1 | 
8 | CC1(C)C(N)=N[C@](C)(c2cc(NC(=O)c3ccc(C#N)cn3)ccc2F)CS1(=O)=O [Example 23, N-(3-((3R)-5-amino-3,6,6-trimethyl-1,1-dioxido-3,6-dihydro-2H-1,4-thiazin-3-yl)-4-fluorophenyl)-5-cyano-2-pyridinecarboxamide] |  |  | 617000 | 2.7 | 2.7 | 
9 | CC1(C)C(N)=N[C@](C)(c2cc(NC(=O)c3ncc(Cl)cc3F)ccc2F)CS1(=O)=O [Example 24, N-(3-((3R)-5-amino-3,6,6-trimethyl-1,1-dioxido-3,6-dihydro-2H-1,4-thiazin-3-yl)-4-fluorophenyl)-5-chloro-3-fluoro-2-pyridinecarboxamide] |  |  | > 400000 | 0.6 | 3.7 | 
10 | Cc1cc(Cl)cnc1C(=O)Nc1ccc(F)c([C@]2(C)CS(=O)(=O)C(C)(C)C(N)=N2)c1 [Example 25, N-(3-((3R)-5-amino-3,6,6-trimethyl-1,1-dioxido-3,6-dihydro-2H-1,4-thiazin-3-yl)-4-fluorophenyl)-5-chloro-3-methyl-2-pyridinecarboxamide] |  |  | 263000 | 0.3 | 3.2 | 
11 | CC#CCOc1cnc(C(=O)Nc2ccc(F)c([C@]3(C)CS(=O)(=O)C(C)(C)C(N)=N3)c2)cn1 [Example 26, N-(3-((3R)-5-amino-3,6,6-trimethyl-1,1-dioxido-3,6-dihydro-2H-1,4-thiazin-3-yl)-4-fluorophenyl)-5-(2-butyn-1-yloxy)-2-pyrazinecarboxamide] |  |  | 475000 | 0.4 | 0.05 | 
12 | Cc1nc(C(=O)Nc2ccc(F)c([C@]3(C)CS(=O)(=O)C(C)(C)C(N)=N3)c2)cs1 [Example 27, N-(3-((3R)-5-amino-3,6,6-trimethyl-1,1-dioxido-3,6-dihydro-2H-1,4-thiazin-3-yl)-4-fluorophenyl)-2-methyl-1,3-thiazole-4-carboxamide] |  |  | > 400000 | 51 | 60.9 | 
13 | COc1cnc(C(=O)Nc2ccc(F)c([C@]3(C)CS(=O)(=O)CC(N)=N3)c2)cn1 [Example 28, N-(3-((3R)-5-amino-3-methyl-1,1-dioxido-3,6-dihydro-2H-1,4-thiazin-3-yl)-4-fluorophenyl)-5-methoxy-2-pyrazinecarboxamide] |  |  | 50900 | 14.9 | 68 | 
14 | C[C@@]1(c2cc(NC(=O)c3ccc(Cl)cn3)ccc2F)CS(=O)(=O)CC(N)=N1 [Example 29, N-(3-((3R)-5-amino-3-methyl-1,1-dioxido-3,6-dihydro-2H-1,4-thiazin-3-yl)-4-fluorophenyl)-5-chloro-2-pyridinecarboxamide] |  |  | 118000 | 6 | 10.8 | 
15 | CC1(C)C(N)=N[C@](C)(c2cc(Nc3ncnc4cc(C#N)cnc34)ccc2F)C(F)S1(=O)=O (stereo partly drawn) [Example 229, 4-((3-((3R)-5-amino-2-fluoro-3,6,6-trimethyl-1,1-dioxido-3,6-dihydro-2H-1,4-thiazin-3-yl)-4-fluorophenyl)amino)pyrido[3,2-d]pyrimidine-7-carbonitrile] |  |  | 80700 |  |  | 1.01
16 | NC1=N[C@@](CF)(c2cc(Nc3nccc4cc(Cl)cnc34)ccc2F)CS(=O)(=O)C12CCC2 [Example 244, N-(3-((7R)-9-amino-7-(fluoromethyl)-5,5-dioxido-5-thia-8-azaspiro[3.5]non-8-en-7-yl)-4-fluorophenyl)-3-chloro-1,7-naphthyridin-8-amine] |  |  | 528000 |  |  | 3530
17 | COc1ccnc(Oc2ccc(F)c([C@]3(C)CS(=O)(=O)C(C)(C)C(N)=N3)c2)c1 [Example 287, (5R)-5-(2-fluoro-5-((4-methoxy-2-pyridinyl)oxy)phenyl)-2,2,5-trimethyl-5,6-dihydro-2H-1,4-thiazin-3-amine 1,1-dioxide] |  |  | 204000 |  |  | 100
18 | CC1(C)C(N)=N[C@](C)(c2cc(Oc3ncccn3)ccc2F)CS1(=O)=O [Example 288, (5R)-5-(2-fluoro-5-(2-pyrimidinyloxy)phenyl)-2,2,5-trimethyl-5,6-dihydro-2H-1,4-thiazin-3-amine 1,1-dioxide] |  |  | 222000 |  |  | 125
19 | COc1cnc2c(Oc3ccc(F)c([C@]4(C)CS(=O)(=O)C(C)(C)C(N)=N4)c3)nccc2c1 [Example 305, (5R)-5-(2-fluoro-5-((3-methoxy-1,7-naphthyridin-8-yl)oxy)phenyl)-2,2,5-trimethyl-5,6-dihydro-2H-1,4-thiazin-3-amine 1,1-dioxide] |  |  | 680000 |  |  | 2070
